Laboratory results as given in the NIST ThermoML archive (doi:10.1016/j.fluid.2016.03.013).

Assay: xn = mol fraction of the nth substance listed
Conditions: for surface tension liquid-gas / mass density: draining crucible method; for viscosity / mass density: 101 kPa, Liquid; for viscosity: Draining crucible

[Al] [aluminum] + [Zn]
Conditions | mass density, x1 = 0.25 [kg/m3] | mass density, x1 = 0.51 [kg/m3] | mass density, x1 = 0.83 [kg/m3] | surface tension liquid-gas, x1 = 0.25 [mN/m] | surface tension liquid-gas, x1 = 0.51 [mN/m] | surface tension liquid-gas, x1 = 0.83 [mN/m] | viscosity, x1 = 0.25 [mPa·s] | viscosity, x1 = 0.51 [mPa·s] | viscosity, x1 = 0.83 [mPa·s]
873 K | 5201 | 4204 | – | 802.1 | 830.8 | – | 1.917 | 1.633 | –
923 K | 5139 | 4138 | 2720 | 789.4 | 819.6 | 858.7 | 1.791 | 1.542 | 1.356
973 K | 5089 | 4089 | 2680 | 779.3 | 806.5 | 848.1 | 1.696 | 1.448 | 1.271
1023 K | 5011 | 3995 | 2530 | 763.8 | 795.8 | 836.9 | 1.643 | 1.405 | 1.222
